In US6218406A, “Farnesyl transferase inhibitors, their preparation, the pharmaceutical compositions which contain them and their use in the preparation of medicaments” (Aventis Pharma S.A., priority 1996, dated 2001):
pIC50: −log10 of the molar value. Read-outs that look alike come from different tables or passages of the source.

Tests used:
farnesyl transferase = farnesyl transferase (Homo sapiens, UniProt P49354+P49356); test: Farnesyl transferase inhibition, [3H]-farnesylation of biotinylated K-ras C-terminal peptide (SPA assay); type: biochemical; details: 60 min at 37° C., mean of two IC50 values
[1] = system: HCT116 human colic carcinoma line; test: In vivo antitumour test, human carcinoma grafted subcutaneously into mice; details: 400 mg/kg/adm., orally
Description: The influence of the compounds according to the invention, administered to mice, on the growth of carcinomas of human origin grafted subcutaneously into these mice was studied.
On day 0 of the experiment, the mice received a tumour fragment (30-60 mg) bilaterally under the skin using a trocar. The bilateral implantation of the tumours ensured a more uniform tumour weight per mouse and thus made it possible to reduce the number of animals per group. The mice were then divided into the different treated and untreated groups.
The product was suspended in an aqueous solution at concentrations that ranged from […], corresponding to doses of 0.1 to 10,000 mg/kg.
The treatments or their possible excipient were administered every day orally, at a maximum volume of 0.2 ml, the duration of administration depending on the doubling time of the tumour.
The tumours were measured 2 to 3 times per week, using a calliper rule, according to two measurements in mm, which were subsequently converted into tumour weight according to the following formula:
tumour weight (mg)=Length (mm)×width^2 (mm^2)/2
An active product was a product which made it possible to limit the growth of the tumour after it had been administered.

[2] = K-Ras substrate, read-out: In vitro inhibitory activity (K-Ras) IC50
[3] = In vitro inhibitory activity (K-Ras) IC50, K-Ras substrate

| Compound | pIC50 (farnesyl transferase; [2]) | Tumour stabilization [1] | pIC50 (farnesyl transferase; [3]) |
| --- | --- | --- | --- |
| C=C(C(=O)N1C[C@H]2[C@@]3(c4ccc(C)cc4)CC[C@H](c4ccccc43)[C@@]2(C(=O)O)C1)c1ccccc1OC (single isomer, unassigned) [Example 3, dextrorotatory enantiomer of (3aRS,4SR,9RS,9aRS)-4,9-ethano-2-[2-(2-methoxyphenyl)propenoyl]-9-(4-methylphenyl)-2,3,3a,4,9,9a-hexahydro-1H-benzo[f]isoindole-3a-carboxylic acid] | 7.55 | Tumour stabilization | – |
| C=C(C(=O)N1C[C@@H]2[C@]3(c4ccc(Cl)c(F)c4)CC[C@@H](c4ccccc43)[C@]2(C(=O)O)C1)c1ccccc1OC (racemic) [Example 67, (3aRS,4SR,9SR,9aRS)-9-(4-chloro-3-fluorophenyl)-4,9-ethano-2-[2-(2-methoxyphenyl)propenoyl]-2,3,3a,4,9,9a-hexahydro-1H-benzo[f]isoindole-3a-carboxylic Acid] | 7.00 | – | – |
| C=C(C(=O)N1C[C@@H]2[C@]3(c4ccc(Br)cc4)CC[C@@H](c4ccccc43)[C@]2(C(=O)OC)C1)c1ccccc1OC (racemic) [Example 49, methyl (3aRS,4SR,9SR,9aRS)-9-(4-bromophenyl)-4,9-ethano-2-[2-(2-methoxyphenyl)-propenoyl]-2,3,3a,4,9,9a-hexahydro-1H-benzo[f]isoindole-3a-carboxylate] | 6.64 | – | – |
| C=C(C(=O)N1C[C@@H]2[C@]3(c4ccc5c(c4)CCO5)CC[C@@H](c4ccccc43)[C@]2(C(=O)NCc2cccnc2)C1)c1ccccc1OC (relative stereo) [Example 63, (3aRS,4SR,9SR,9aRS)-9-(2,3-dihydrobenzofuran-5-yl)-4,9-ethano-2-[2-(2-methoxyphenyl)propenoyl]-2,3,3a,4,9,9a-hexahydro-1H-benzo[f]isoindole-3a-N-(3-pyridylmethyl)carboxamide] | > 7.70 | – | – |
| COc1ccccc1CC(=O)N1C[C@H]2[C@@]3(c4ccc(F)cc4)CC[C@H](c4ccccc43)[C@@]2(C(=O)O)C1 (relative stereo) [Example 8, (3aRS,4SR,9SR,9aRS)-4,9-ethano-9-(4-fluorophenyl)-2-[(2-methoxyphenyl)acetyl]-2,3,3a,4,9,9a-hexahydro-1H-benzo[f]isoindole-3a-carboxylic Acid] | – | – | 7.00 |
| C=C(C(=O)N1C[C@H]2[C@@]3(c4cccc(Cl)c4)CC[C@H](c4ccccc43)[C@@]2(C(=O)NCc2cccnc2)C1)c1ccccc1OC (relative stereo) [Example 90, (3aRS,4SR,9SR,9aRS)-9-(3-chlorophenyl)-4,9-ethano-2-[2-(2-methoxyphenyl)propenoyl]-2,3,3a,4,9,9a-hexahydro-1H-benzo[f]isoindole-3a-N-(3-pyridylmethyl)carboxamide] | 7.17 | – | – |
| C=C(C(=O)N1C[C@@H]2[C@]3(c4cccc(Cl)c4)CC[C@@H](c4ccccc43)[C@]2(C(=O)O)C1)c1ccccc1OC (racemic) [Example 89, (3aRS,4SR,9SR,9aRS)-9-(3-chlorophenyl)-4,9-ethano-2-[2-(2-methoxyphenyl)propenoyl]-2,3,3a,4,9,9a-hexahydro-1H-benzo[f]isoindole-3a-carboxylic Acid] | 8.30 | – | – |
| COc1ccccc1CC(=O)N1C[C@H]2[C@@]3(c4ccc(C)cc4)CC[C@H](c4ccccc43)[C@@]2(C(=O)O)C1 (relative stereo) [Example 5, (3aRS,4SR,9SR,9aRS)-4,9-ethano-2-[(2-methoxyphenyl)acetyl]-9-(4-methylphenyl)-2,3,3a,4,9,9a-hexahydro-1H-benzo[f]isoindole-3a-carboxylic Acid] | – | – | 7.30 |
| C=C(C(=O)N1C[C@@H]2[C@]3(c4ccc(C)c(C)c4)CC[C@@H](c4ccccc43)[C@]2(C(=O)OC)C1)c1ccccc1OC (racemic) [Example 71, methyl (3aRS,4SR,9SR,9aRS)-9-(3,4-dimethylphenyl)-4,9-ethano-2-[2-(2-methoxyphenyl)propenoyl]-2,3,3a,4,9,9a-hexahydro-1H-benzo[f]isoindole-3a-carboxylate] | 6.47 | – | – |
| C=C(C(=O)N1C[C@@H]2[C@]3(c4ccc5c(c4)CCO5)CC[C@@H](c4ccccc43)[C@]2(C(=O)O)C1)c1ccccc1OC (racemic) [Example 62, (3aRS,4SR,9SR,9aRS)-9-(2,3-dihydrobenzofuran-5-yl)-4,9-ethano-2-[2-(2-methoxyphenyl)propenoyl]-2,3,3a,4,9,9a-hexahydro-1H-benzo[f]isoindole-3a-carboxylic Acid] | 7.44 | – | – |
| C=C(C(=O)N1C[C@@H]2[C@]3(c4ccc(C)cc4)CC[C@@H](c4ccccc43)[C@]2(C(N)=O)C1)c1ccccc1OC (racemic) [Example 15, (3aRS,4SR,9SR,9aRS)-3a-carbamoyl-4,9-ethano-2-[2-(2-methoxyphenyl)propenoyl]-9-(4-methylphenyl)-2,3,3a,4,9,9a-hexahydro-1H-benzo[f]isoindole] | 6.77 | – | – |
| C=C(C(=O)N1C[C@@H]2[C@]3(c4ccc(C)cc4)CC[C@@H](c4ccccc43)[C@]2(C(=O)NOCc2ccccc2)C1)c1ccccc1OC (racemic) [Example 14, benzyl (3aRS,4SR,9SR,9aRS)-4,9-ethano-2-[2-(2-methoxyphenyl)propenoyl]-9-(4-methylphenyl)-2,3,3a,4,9,9a-hexahydro-1H-benzo[f]isoindole-3a-hydroxamate] | 6.68 | – | – |
| C=C(C(=O)N1C[C@@H]2[C@]3(c4cccc(C)c4)CC[C@@H](c4ccccc43)[C@]2(C(=O)OC)C1)c1ccccc1OC (racemic) [Example 68, methyl (3aRS,4SR,9SR,9aRS)-4,9-ethano-2-[2-(2-methoxyphenyl)propenoyl]-9-(3-methylphenyl)-2,3,3a,4,9,9a-hexahydro-1H-benzo[f]isoindole-3a-carboxylate] | 6.37 | – | – |
| C=C(C(=O)N1C[C@@H]2[C@]3(c4ccc(C(C)C)cc4)CC[C@@H](c4ccccc43)[C@]2(C(=O)O)C1)c1ccccc1OC (racemic) [Example 57, (3aRS,4SR,9SR,9aRS)-4,9-ethano-9-(4-isopropylphenyl)-2-[2-(2-methoxyphenyl)propenoyl]-2,3,3a,4,9,9a-hexahydro-1H-benzo[f]isoindole-3a-carboxylic Acid] | 6.55 | – | – |
| C=C(C(=O)N1C[C@@H]2[C@]3(c4ccc(OC)c(C)c4)CC[C@@H](c4ccccc43)[C@]2(C(=O)O)C1)c1ccccc1OC (racemic) [Example 54, (3aRS,4SR,9SR,9aRS)-4,9-ethano-2-[2-(2-methoxyphenyl)propenoyl]-9-(4-methoxy-3-methylphenyl)-2,3,3a,4,9,9a-hexahydro-1H-benzo[f]isoindole-3a-carboxylic Acid] | 7.11 | – | – |
| C=C(C(=O)N1C[C@H]2[C@@]3(c4ccc(OC)cc4)CC[C@H](c4ccccc43)[C@@]2(C(=O)NCc2ccsc2)C1)c1ccccc1OC (relative stereo) [Example 80, (3aRS,4SR,9SR,9aRS)-4,9-ethano-9-(4-methoxyphenyl)-2-[2-(2-methoxyphenyl)propenoyl]-2,3,3a,4,9,9a-hexahydro-1H-benzo[f]isoindole-3a-N-(3-thienylmethyl)carboxamide] | 7.17 | – | – |
| C=C(C(=O)N1C[C@@H]2[C@]3(c4ccc(OC)cc4)CC[C@@](C)(c4ccccc43)[C@@]2(C(=O)O)C1)c1ccccc1OC (racemic) [Example 101, (3aRS,4SR,9SR,9aRS)-4,9-ethano-2-[2-(2-methoxyphenyl)propenoyl]-9-(4-methoxyphenyl)-4-methyl-2,3,3a,4,9,9a-hexahydro-1H-benzo[f]isoindole-3a-carboxylic Acid] | > 7.72 | – | – |
| COc1cccc([C@]23CC[C@H](c4ccccc42)[C@@]2(C(=O)O)CN(C(=O)Cc4ccccc4OC)C[C@@H]32)c1 (relative stereo) [Example 10, (3aRS,4SR,9SR,9aRS)-4,9-ethano-9-(3-methoxyphenyl)-2-[(2-methoxyphenyl)acetyl]-2,3,3a,4,9,9a-hexahydro-1H-benzo[f]isoindole-3a-carboxylic Acid] | 6.80 | – | – |
